From patent publication US6319702A, “Nucleic acids encoding mutant human carboxypeptidase A enzymes” (Glaxo Wellcome, Inc., priority 1993, dated 2001)
Read-outs that look alike come from different tables or passages of the source.

What was measured:
mutant enzyme = experiment: Substrate behaviour with mutant enzyme; type: biochemical, human
Excerpt: This type of compound is not useful for ADEPT.

268ala = experiment: Enzyme kinetics of prodrugs with 268ala mutant of human CPA1 (coupled assay); type: biochemical; settings: 25° C., pH 7.4
Excerpt: As indicated herein, the in vivo stable prodrug of the present invention should be a better substrate for a mutant enzyme than the corresponding wild type enzyme in order for the stable prodrug to be activated selectively at the tumour. […] The most relevant kinetic constant in the table is the kcat/Km, which provides an estimate of the second order rate constant for the enzyme catalyzed conversion of prodrug to methotrexate. Thus, the larger the kcat/Km, the more efficient the enzyme with a particular substrate. […] Thus, the single mutation at 268 from thr to gly converted very poor substrates in the wild type enzyme to excellent substrates in the mutant enzyme. […] Thus, the compounds are much better substrates for the mutant enzyme than the wild type enzyme which permits very specific tumor targeted activation of the nontoxic, stable prodrug to the active agent.
Kinetics were determined by a modification of the coupled assay of Kuefner, et al (1989) Biochemistry 28 2288-2297 in which the product MTX is converted by excess carboxypeptidase G to the pteroate of MTX. In this assay the reaction is followed spectrophotometrically at 315 nm; at this wavelength the change in molar absorbtivity for the coupled reaction was determined to be 9.57 mM^-1 cm^-1. Assays were performed at 25° C. in 25 mM tris-HCl, 100 mM NaCl, pH 7.4. Prodrugs were preincubated at 25° C. with buffer and 17 milliunits of Sigma #C-9658 carboxypeptidase G in 1 ml total volume. Assay was initiated with carboxypeptidase A or the appropriate mutant. Initial velocities were obtained, and standard Michaelis-Menten calculations were used to determine kinetic constants (in Biochemistry, Lehninger, A. L. 1970, Worth Publishers, Inc, NY).

in vivo = settings: mouse, iv
[1] = target: T1, wild type human carboxypeptidase A1 (Homo sapiens, UniProt P15085); experiment: Enzyme kinetics of prodrugs with wild type human carboxypeptidase A1 (coupled assay); type: biochemical
T1 sequence (P15085 111-419): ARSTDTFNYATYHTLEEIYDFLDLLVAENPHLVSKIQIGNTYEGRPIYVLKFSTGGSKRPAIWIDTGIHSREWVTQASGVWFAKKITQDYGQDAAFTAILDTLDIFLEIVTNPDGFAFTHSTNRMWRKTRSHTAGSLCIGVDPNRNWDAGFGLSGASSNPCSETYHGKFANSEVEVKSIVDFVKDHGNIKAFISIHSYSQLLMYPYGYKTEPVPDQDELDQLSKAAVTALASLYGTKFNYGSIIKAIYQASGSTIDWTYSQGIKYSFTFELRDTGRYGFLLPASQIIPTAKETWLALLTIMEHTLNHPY
Outline: (§1)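 Coupled spectrophotometric assay: released methotrexate converted by excess carboxypeptidase G (17 milliunits) to its pteroate, followed at 315 nm (Δε 9.57 mM^-1 cm^-1). 25° C in 25 mM tris-HCl, 100 mM NaCl, pH 7.4; reaction started with wild-type or mutant carboxypeptidase A. Kinetic constants from initial velocities by Michaelis-Menten analysis.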

[2] = Stability and biodistribution of prodrugs in vivo (HPLC of plasma and tissues); parameters: species or system mice (CD-1 nude; BALB/C where indicated)
268gly = experiment: Enzyme kinetics of prodrugs with 268gly mutant of human CPA1 (coupled assay); type: biochemical
Outline: as §1

With `CN(Cc1cnc2nc(N)nc(N)c2n1)c1ccc(C(=O)N[C@@H](CCC(=O)O)C(=O)N[C@@H](Cc2ccccc2C2CCCC2)C(=O)O)cc1` [Prodrug 8] the “substrate for a mutant enzyme (in words)” value (mutant enzyme) was “good substrates for a mutant enzyme”, the Km (268ala) was 56 µM and the kcat (268ala) was 0.088 s⁻¹. For the same compound, the MTD (in vivo) was ≥ 20 mg/kg, the “kcat/Km for human CPA1 compared with that of the L-phenylalanine prodrug (in words)” value [1] was “much lower” and the “substrate for wild type CPA (in words)” value [1] was “not for the wild type enzyme”. The kcat ([1]; Human CPA1, 25° C., pH 7.4) was 0.012 s⁻¹, the “concentration of prodrug in cecum” value ([2]; CECUM, 30 min, 50 mg/kg i.p. or i.v., CD-1 nude mice) was 6.8 nmol/g and the “concentration of prodrug in cecum” value ([2]; CECUM, 120 min, 50 mg/kg i.p. or i.v., CD-1 nude mice) was 235.1 nmol/g. For the same compound, the “concentration of prodrug in feces” value ([2]; FECES, 30 min, 50 mg/kg i.p. or i.v., CD-1 nude mice) was 150.2 nmol/g, the “concentration of prodrug in feces” value ([2]; FECES, 120 min, 50 mg/kg i.p. or i.v., CD-1 nude mice) was 646.2 nmol/g and the “concentration of prodrug in kidney” value ([2]; KIDNEY, 30 min, 50 mg/kg i.p. or i.v., CD-1 nude mice) was 5.6 nmol/g. The “concentration of prodrug in kidney” value ([2]; KIDNEY, 120 min, 50 mg/kg i.p. or i.v., CD-1 nude mice) was 3.2 nmol/g, the “concentration of prodrug in large intestine” value ([2]; LARGE INTESTINE, 30 min, 50 mg/kg i.p. or i.v., CD-1 nude mice) was 5.2 nmol/g and the “concentration of prodrug in large intestine” value ([2]; LARGE INTESTINE, 120 min, 50 mg/kg i.p. or i.v., CD-1 nude mice) was 27.3 nmol/g. The “concentration of prodrug in liver” value ([2]; LIVER, 30 min, 50 mg/kg i.p. or i.v., CD-1 nude mice) was 113.5 nmol/g, the “concentration of prodrug in liver” value ([2]; LIVER, 120 min, 50 mg/kg i.p. or i.v., CD-1 nude mice) was 43.9 nmol/g and the “concentration of prodrug in small intestine” value ([2]; SMALL INTESTINE, 30 min, 50 mg/kg i.p. or i.v., CD-1 nude mice) was 364.5 nmol/g. For the same compound, the “concentration of prodrug in small intestine” value ([2]; SMALL INTESTINE, 120 min, 50 mg/kg i.p. or i.v., CD-1 nude mice) was 31.7 nmol/g, the “concentration of prodrug in spleen” value ([2]; SPLEEN, 30 min, 50 mg/kg i.p. or i.v., CD-1 nude mice) was 1.4 nmol/g and the “concentration of prodrug in spleen” value ([2]; SPLEEN, 120 min, 50 mg/kg i.p. or i.v., CD-1 nude mice) was 1.1 nmol/g. For the same compound, the “stability in vivo (in words)” value ([2]; mice, 50 mg/kg) was “stable in vivo”, the remaining at 0.5 h ([2]; mouse, cecum, 50 mg/kg, CECUM, 30 min, 50 mg/kg i.p. or i.v., CD-1 nude mice, read-out: stability: percentage of material observed as intact prodrug, cecum) was 75% and the remaining at 2 h ([2]; mouse, cecum, 50 mg/kg, CECUM, 120 min, 50 mg/kg i.p. or i.v., CD-1 nude mice, read-out: stability: percentage of material observed as intact prodrug, cecum) was 56%. For the same compound, the remaining at 0.5 h ([2]; mouse, feces, 50 mg/kg, FECES, 30 min, 50 mg/kg i.p. or i.v., CD-1 nude mice, read-out: stability: percentage of material observed as intact prodrug, feces (converted)) was 71%, the remaining at 2 h ([2]; mouse, feces, 50 mg/kg, FECES, 120 min, 50 mg/kg i.p. or i.v., CD-1 nude mice, read-out: stability: percentage of material observed as intact prodrug, feces) was 55% and the remaining at 0.5 h ([2]; mouse, kidney, 50 mg/kg, KIDNEY, 30 min, 50 mg/kg i.p. or i.v., CD-1 nude mice, read-out: stability: percentage of material observed as intact prodrug, kidney) was 84%. For the same compound, the remaining at 2 h ([2]; mouse, kidney, 50 mg/kg, KIDNEY, 120 min, 50 mg/kg i.p. or i.v., CD-1 nude mice, read-out: stability: percentage of material observed as intact prodrug, kidney) was 81%, the remaining at 0.5 h ([2]; mouse, large intestine, 50 mg/kg, LARGE INTESTINE, 30 min, 50 mg/kg i.p. or i.v., CD-1 nude mice, read-out: stability: percentage of material observed as intact prodrug, large intestine) was 93% and the remaining at 2 h ([2]; mouse, large intestine, 50 mg/kg, LARGE INTESTINE, 120 min, 50 mg/kg i.p. or i.v., CD-1 nude mice, read-out: stability: percentage of material observed as intact prodrug, large intestine) was 57%. For the same compound, the remaining at 0.5 h ([2]; mouse, liver, 50 mg/kg, LIVER, 30 min, 50 mg/kg i.p. or i.v., CD-1 nude mice, read-out: stability: percentage of material observed as intact prodrug, liver (converted)) was 90%, the remaining at 2 h ([2]; mouse, liver, 50 mg/kg, LIVER, 120 min, 50 mg/kg i.p. or i.v., CD-1 nude mice, read-out: stability: percentage of material observed as intact prodrug, liver) was 76% and the concentration at 0.5 h ([2]; mouse, plasma, 50 mg/kg, PLASMA, 30 min, 50 mg/kg i.p. or i.v., CD-1 nude mice, read-out: concentration of prodrug in plasma) was 28.5 µM. It also gave a remaining at 0.5 h ([2]; mouse, plasma, 50 mg/kg, PLASMA, 30 min, 50 mg/kg i.p. or i.v., CD-1 nude mice, read-out: stability: percentage of material observed as intact prodrug, plasma) of 95%, a concentration at 2 h ([2]; mouse, plasma, 50 mg/kg, PLASMA, 120 min, 50 mg/kg i.p. or i.v., CD-1 nude mice, read-out: concentration of prodrug in plasma) of 1.1 µM and a remaining at 2 h ([2]; mouse, plasma, 50 mg/kg, PLASMA, 120 min, 50 mg/kg i.p. or i.v., CD-1 nude mice, read-out: stability: percentage of material observed as intact prodrug, plasma) of 90%. It also gave a remaining at 0.5 h ([2]; mouse, small intestine, 50 mg/kg, SMALL INTESTINE, 30 min, 50 mg/kg i.p. or i.v., CD-1 nude mice, read-out: stability: percentage of material observed as intact prodrug, small intestine) of 77%, a remaining at 2 h ([2]; mouse, small intestine, 50 mg/kg, SMALL INTESTINE, 120 min, 50 mg/kg i.p. or i.v., CD-1 nude mice, read-out: stability: percentage of material observed as intact prodrug, small intestine) of 35% and a remaining at 0.5 h ([2]; mouse, spleen, 50 mg/kg, SPLEEN, 30 min, 50 mg/kg i.p. or i.v., CD-1 nude mice, read-out: stability: percentage of material observed as intact prodrug, spleen) of 98%. It also gave a remaining at 2 h ([2]; mouse, spleen, 50 mg/kg, SPLEEN, 120 min, 50 mg/kg i.p. or i.v., CD-1 nude mice, read-out: stability: percentage of material observed as intact prodrug, spleen) of 100%, a kcat/Km (268gly; 268Gly) of 157000 M⁻¹ s⁻¹ and a Km (268gly; 268gly, 25° C., pH 7.4) of 15 µM. For the same compound, the kcat (268gly; 268gly, 25° C., pH 7.4) was 2.35 s⁻¹.
